Test results as given in ChEMBL document CHEMBL1124029, “Novel DNA groove binding alkylators: design, synthesis, and biological evaluation” (1988).

Test system: Vaccinia virus
Assay: Minimum inhibitory concentration required to reduce virus induced cytopathogenicity by 50% against vaccinia virus in rabbit primary kidney cell cultures
Type: functional
Conditions: Orthopoxvirus vaccinia

| Compound | MIC |
| --- | --- |
| Cl.Cn1cc(NC(=O)c2cc(NC(=O)C(Cl)(Cl)Cl)cn2C)cc1C(=O)NCCC(=N)N | > 100 µg/mL |
| Cl.Cn1cc(NC(=O)c2cc(NC(=O)CCl)cn2C)cc1C(=O)NCCC(=N)N | 10 µg/mL |
| Cl.Cn1cc(NC(=O)c2cc(NC(=O)CF)cn2C)cc1C(=O)NCCC(=N)N | 7 µg/mL |
| Cl.Cn1cc(NC(=O)c2cc(NC(=O)CCCCl)cn2C)cc1C(=O)NCCC(=N)N | 20 µg/mL |
| Cl.Cl.Cn1cc(NC(=O)c2cc(NC(=O)c3cc(NC=O)cn3C)cn2C)cc1C(=O)NCCC(=N)N | 0.2 µg/mL |
| Cl.Cn1cc(NC(=O)c2cc(NC(=O)C3CC3)cn2C)cc1C(=O)NCCC(=N)N | > 100 µg/mL |
| CC[N+](CC)(CC)CC.Cn1cc(NC(=O)c2cc(NC(=O)C(Cl)Cl)cn2C)cc1C(=O)NCCC(=N)N.O=S(=O)([O-])O | 20 µg/mL |
| Cl.Cl.Cn1cc(NC(=O)c2cc(NC(=O)CNC(=N)N)cn2C)cc1C(=O)NCCC(=N)N [CONGOCIDINE] | 2 µg/mL |
